PMC9709698 (Journal of Molecular Structure, 2022)

Columns and labels:
NRC-03-nhCoV = test: Antiviral activity; assay type: cell-based, SARS-CoV-2; settings: CC50 Vero-E6 / IC50 NRC-03-nhCoV
SARS-CoV-2 = test: Plaque infectivity reduction assay; assay type: cell-based; settings: for inhibition at 62.5 µM: Severe acute respiratory syndrome coronavirus 2, read-out: Virus inhibition% Adsorption, 62.5 µM; for inhibition at 125 µM: Severe acute respiratory syndrome coronavirus 2, read-out: Virus inhibition% Adsorption, 125 µM

In the case of O=C(CSc1nc2ccccc2c(=O)[nH]1)Nc1ccccc1C(=O)O [Compound 11a, 2-(2-((4-Oxo-3,4-dihydroquinazolin-2-yl)thio)acetamido)benzoic acid], the “SI (selectivity index) [CC50/IC50]” value (NRC-03-nhCoV) is reported as 4.3.
O=C(CSc1nc2ccccc2c(=O)[nH]1)Nc1cccc(C(=O)O)c1 [Compound 11b, 3-(2-((4-Oxo-3,4-dihydroquinazolin-2-yl)thio)acetamido)benzoic acid] was tested, and the “SI (selectivity index) [CC50/IC50]” value (NRC-03-nhCoV) was 4.9.
O=C(CSc1nc2ccccc2c(=O)[nH]1)Nc1ccc(C(=O)O)cc1 [Compound 11c, 4-(2-((4-Oxo-3,4-dihydroquinazolin-2-yl)thio)acetamido)benzoic acid] was tested, and the “SI (selectivity index) [CC50/IC50]” value (NRC-03-nhCoV) was 5.6.
For O=C(CSc1nc2c(c(=O)[nH]1)CCCC2)Nc1ccccc1C(=O)O [Compound 12a, 2-(2-((4-Oxo-3,4,5,6,7,8-hexahydroquinazolin-2-yl)thio)acetamido)benzoic acid], the “SI (selectivity index) [CC50/IC50]” value (NRC-03-nhCoV) was 2.5.
For O=C(CSc1nc2c(c(=O)[nH]1)CCCC2)Nc1cccc(C(=O)O)c1 [Compound 12b, 3-(2-((4-Oxo-3,4,5,6,7,8-hexahydroquinazolin-2-yl)thio)acetamido)benzoic acid], the “SI (selectivity index) [CC50/IC50]” value (NRC-03-nhCoV) was 0.98.
With O=C(CSc1nc2c(c(=O)[nH]1)CCCC2)Nc1ccc(C(=O)O)cc1 [Compound 12c, 4-(2-((4-Oxo-3,4,5,6,7,8-hexahydroquinazolin-2-yl)thio)acetamido)benzoic acid] the “SI (selectivity index) [CC50/IC50]” value (NRC-03-nhCoV) was 0.63.
With O=C(CSc1nc2ccccc2c(=O)[nH]1)NNC(=O)c1ccccc1 [Compound 17a, N'-(2-((4-Oxo-3,4-dihydroquinazolin-2-yl)thio)acetyl)benzohydrazide] the “SI (selectivity index) [CC50/IC50]” value (NRC-03-nhCoV) was 0.59.
For Cc1ccc(C(=O)NNC(=O)CSc2nc3ccccc3c(=O)[nH]2)cc1 [Compound 17b, 4-Methyl-N'-(2-((4-oxo-3,4-dihydroquinazolin-2-yl)thio)acetyl)benzohydrazide], the “SI (selectivity index) [CC50/IC50]” value (NRC-03-nhCoV) was 2.14.
For O=C(CSc1nc2ccccc2c(=O)[nH]1)NNC(=O)c1ccc([N+](=O)[O-])cc1 [Compound 17c, 4-Nitro-N'-(2-((4-oxo-3,4-dihydroquinazolin-2-yl)thio)acetyl)benzohydrazide], the “SI (selectivity index) [CC50/IC50]” value (NRC-03-nhCoV) was 2.61.
With COc1ccccc1C(=O)NNC(=O)CSc1nc2ccccc2c(=O)[nH]1 [Compound 17d, 2-Methoxy-N'-(2-((4-oxo-3,4-dihydroquinazolin-2-yl)thio)acetyl)benzohydrazide] the “SI (selectivity index) [CC50/IC50]” value (NRC-03-nhCoV) was 0.4.
In the case of O=C(CSc1nc2ccccc2c(=O)[nH]1)NNC(=O)c1ccccc1Cl [Compound 17e, 2-Chloro-N'-(2-((4-oxo-3,4-dihydroquinazolin-2-yl)thio)acetyl)benzohydrazide], the “SI (selectivity index) [CC50/IC50]” value (NRC-03-nhCoV) is reported as 0.24.
O=C(CSc1nc2ccccc2c(=O)[nH]1)NNC(=O)c1ccc(Cl)cc1 [Compound 17f, 4-Chloro-N'-(2-((4-oxo-3,4-dihydroquinazolin-2-yl)thio)acetyl)benzohydrazide] was tested, and the “SI (selectivity index) [CC50/IC50]” value (NRC-03-nhCoV) was 4.3.
For O=C(CSc1nc2ccccc2c(=O)[nH]1)NNC(=O)c1ccccc1Br [Compound 17g, 2-Bromo-N'-(2-((4-oxo-3,4-dihydroquinazolin-2-yl)thio)acetyl)benzohydrazide], the “SI (selectivity index) [CC50/IC50]” value (NRC-03-nhCoV) was 8.64, the inhibition at 62.5 µM (SARS-CoV-2) was 26.7 ± 6.65% and the inhibition at 125 µM (SARS-CoV-2) was 29.6 ± 8.3%.
With O=C(CSc1nc2c(c(=O)[nH]1)CCCC2)NNC(=O)c1ccccc1 [Compound 18a, N'-(2-((4-oxo-3,4,5,6,7,8-hexahydroquinazolin-2-yl)thio)acetyl)benzohydrazide] the “SI (selectivity index) [CC50/IC50]” value (NRC-03-nhCoV) was 1.68.
Cc1ccc(C(=O)NNC(=O)CSc2nc3c(c(=O)[nH]2)CCCC3)cc1 [Compound 18b, 4-Methyl-N'-(2-((4-oxo-3,4,5,6,7,8-hexahydroquinazolin-2-yl)thio)acetyl)benzohydrazide] was tested, and the “SI (selectivity index) [CC50/IC50]” value (NRC-03-nhCoV) was 4.43.
In the case of O=C(CSc1nc2c(c(=O)[nH]1)CCCC2)NNC(=O)c1ccc([N+](=O)[O-])cc1 [Compound 18c, 4-Nitro-N'-(2-((4-oxo-3,4,5,6,7,8-hexahydroquinazolin-2-yl)thio)acetyl)benzohydrazide], the “SI (selectivity index) [CC50/IC50]” value (NRC-03-nhCoV) is reported as 10.67, the inhibition at 62.5 µM (SARS-CoV-2) is reported as 28.9 ± 10.2% and the inhibition at 125 µM (SARS-CoV-2) is reported as 44.4 ± 3.87%.
For COc1ccccc1C(=O)NNC(=O)CSc1nc2c(c(=O)[nH]1)CCCC2 [Compound 18d, 2-Methoxy-N'-(2-((4-oxo-3,4,5,6,7,8-hexahydroquinazolin-2-yl)thio)acetyl)benzohydrazide], the “SI (selectivity index) [CC50/IC50]” value (NRC-03-nhCoV) was 2.95.
With O=C(CSc1nc2c(c(=O)[nH]1)CCCC2)NNC(=O)c1ccccc1Cl [Compound 18e, 2-Chloro-N'-(2-((4-oxo-3,4,5,6,7,8-hexahydroquinazolin-2-yl)thio)acetyl)benzohydrazide] the “SI (selectivity index) [CC50/IC50]” value (NRC-03-nhCoV) was 1.14.
With O=C(CSc1nc2c(c(=O)[nH]1)CCCC2)NNC(=O)c1ccc(Cl)cc1 [Compound 18f, 4-Chloro-N'-(2-((4-oxo-3,4,5,6,7,8-hexahydroquinazolin-2-yl)thio)acetyl)benzohydrazide] the “SI (selectivity index) [CC50/IC50]” value (NRC-03-nhCoV) was 16.04, the “Virus inhibition% Virucidal” value (SARS-CoV-2; 125 µM) was 53.3 ± 3.35% and the inhibition at 62.5 µM (SARS-CoV-2) was 13.3 ± 3.35%. It also gave an inhibition at 125 µM (SARS-CoV-2) of 20 ± 3.3%.
With O=C(CSc1nc2c(c(=O)[nH]1)CCCC2)NNC(=O)c1ccccc1Br [Compound 18g, 2-Bromo-N'-(2-((4-oxo-3,4,5,6,7,8-hexahydroquinazolin-2-yl)thio)acetyl)benzohydrazide] the “SI (selectivity index) [CC50/IC50]” value (NRC-03-nhCoV) was 5.23.
